Patent publication US20250353841A1 (BIOGEN MA INC., priority 2022, published 2025)

test system: mutant Huntington (HTT) protein; assay: HTT Mutant HTRF iPSC assay (mHTT protein lowering); type: cell-based; conditions: human iPSC derived from a HTT patient with a poly-Q49 mutation

First: Cc1cn2nc(-c3cc(F)c4nc(NC(=O)C5CN(C(C)C)C5)cn4c3)cc2c(C)n1 [Compound 295, N-(6-(4,6-dimethylpyrazolo[1,5-a]pyrazin-2-yl)-8-fluoroimidazo[1,2-a]pyridin-2-yl)-1-isopropylazetidine-3-carboxamide]
Second: Cc1cn2nc(-c3cc(F)c4nc(NC(=O)C5CN(C(C)C)C5)nn4c3)cc(C)c2n1 [Compound 324, N-[6-(2,8-dimethylimidazo[1,2-b]pyridazin-6-yl)-8-fluoro-[1,2,4]triazolo[1,5-a]pyridin-2-yl]-1-isopropyl-azetidine-3-carboxamide]
The IC50 of the first is lower: < 100 nM for the first, 1000 to 9000 nM for the second.

Cc1cn2nc(-c3cc(F)c4nc(N(C)C5CC(C)(C)NC(C)(C)C5)oc4c3)cc(C)c2n1 [Compound 467, 6-(2,8-dimethylimidazo[1,2-b]pyridazin-6-yl)-4-fluoro-N-methyl-N-(2,2,6,6-tetramethylpiperidin-4-yl)benzo[d]oxazol-2-amine] and CCN1CC[C@@H](N(C)c2nc3c(F)cc(-c4cc(C)c5nc(C)cn5n4)cc3o2)C[C@@H]1C (relative stereo) [Compound 488, rel-6-(2,8-dimethylimidazo[1,2-b]pyridazin-6-yl)-N-((2R,4S)-1-ethyl-2-methylpiperidin-4-yl)-4-fluoro-N-methylbenzo[d]oxazol-2-amine] fall in the same range of IC50: 100 to 1000 nM for the first, 100 to 1000 nM for the second.

First: Cc1cn2cc(-c3cc(F)c4nc(C5CCNCC5)cn4c3)ccc2n1 [Compound 96, 8-fluoro-2′-methyl-2-(piperidin-4-yl)-6,6′-biimidazo[1,2-a]pyridine]
Second: CCc1cc(-c2cc(F)c3nc(C4CCNCC4)cn3c2)cn2cc(C)nc12 [Compound 103, 8-ethyl-8′-fluoro-2-methyl-2′-(piperidin-4-yl)-6,6′-biimidazo[1,2-a]pyridine]
The IC50 of the first is higher: 1000 to 9000 nM for the first, 100 to 1000 nM for the second. The second is the more potent here.

First: Cc1cc2nc(-c3cc(F)c4nc([C@H]5[C@@H]6CN(C)C[C@@H]65)cn4c3)cc(C)n2n1 [Compound 223, 5-(8-fluoro-2-((1R,5S,6r)-3-methyl-3-azabicyclo[3.1.0]hexan-6-yl)imidazo[1,2-a]pyridin-6-yl)-2,7-dimethylpyrazolo[1,5-a]pyrimidine]
Second: Cc1cn2nc(-c3cc(F)c4nc([C@H]5[C@@H]6CN(C)C[C@@H]65)cn4c3)cc(C(F)F)c2n1 [Compound 233, 8-(difluoromethyl)-6-(8-fluoro-2-((1R,5S,6r)-3-methyl-3-azabicyclo[3.1.0]hexan-6-yl)imidazo[1,2-a]pyridin-6-yl)-2-methylimidazo[1,2-b]pyridazine]
The IC50 of the first is higher: 100 to 1000 nM for the first, < 100 nM for the second. The second is the more potent here.

First: Cc1cc2nc(-c3cc(F)c4nn(C5CCN(C)CC5)cc4c3)cc(C)n2n1 [Compound 360, 5-(7-fluoro-2-(1-methylpiperidin-4-yl)-2H-indazol-5-yl)-2,7-dimethylpyrazolo[1,5-a]pyrimidine]
Second: Cc1cn2nc(-c3cc(F)c4nc(C(=O)N(C)C5CCN(C)CC5)cn4c3)cc(C)c2n1 [Compound 332, 6-(2,8-dimethylimidazo[1,2-b]pyridazin-6-yl)-8-fluoro-N-methyl-N-(1-methylpiperidin-4-yl)imidazo[1,2-a]pyridine-2-carboxamide]
The IC50 of the first is higher: 100 to 1000 nM for the first, < 100 nM for the second. The second is the more potent here.

Cc1cn2nc(-c3cc(F)c4nn(C5CCNCC5)nc4c3)cc(C3CC3)c2n1 [Compound 387, 6-(8-cyclopropyl-2-methylimidazo[1,2-b]pyridazin-6-yl)-4-fluoro-2-(piperidin-4-yl)-2H-benzo[d][1,2,3]triazole] and Cc1cn2cc(-c3cc(F)c4nn(C5CCNCC5)nc4c3)cc(F)c2n1 [Compound 137, 4-fluoro-6-(8-fluoro-2-methylimidazo[1,2-a]pyridin-6-yl)-2-(piperidin-4-yl)-2H-benzo[d][1,2,3]triazole] fall in the same range of IC50: 100 to 1000 nM for the first, 100 to 1000 nM for the second.

First: Cn1cc2cc(-c3cc(F)c4nc(C5CCNC(C)(C)C5)cn4c3)cc(F)c2n1 (stereo not drawn) [Compound 63, 5-(2-(2,2-dimethylpiperidin-4-yl)-8-fluoroimidazo[1,2-a]pyridin-6-yl)-7-fluoro-2-methyl-2H-indazole]
Second: CN[C@@H]1CCC[C@H](c2cn3cc(-c4cc(F)c5nn(C)cc5c4)cc(F)c3n2)C1 (stereo in doubt) [Compound 162, rel-(1R,3S)-3-(8-fluoro-6-(7-fluoro-2-methyl-2H-indazol-5-yl)imidazo[1,2-a]pyridin-2-yl)-N-methylcyclohexan-1-amine]
The IC50 of the first is higher: 1000 to 9000 nM for the first, 100 to 1000 nM for the second.

Cc1cn2nc(-c3cc(F)c4nc(NC(=O)C5CNC5)cn4c3)cc(C)c2n1 [Compound 294, N-[6-(2,8-dimethylimidazo[1,2-b]pyridazin-6-yl)-8-fluoro-imidazo[1,2-a]pyridin-2-yl]azetidine-3-carboxamide] and Cc1cn2nc(-c3cc(F)c4nc(NC(=O)[C@H]5C[C@H](N(C)C)C5)cn4c3)cc(C)c2n1 [Compound 288, (1r,3r)-3-(dimethylamino)-N-(6-(2,8-dimethylimidazo[1,2-b]pyridazin-6-yl)-8-fluoroimidazo[1,2-a]pyridin-2-yl)cyclobutane-1-carboxamide] cannot be ordered by IC50: < 100 nM for the first, < 100 nM for the second.

First: Cc1cn2nc(-c3cc(F)c4nc([C@H]5CCC6(CCNCC6)C5)cn4c3)cc(C)c2n1 (single isomer, unassigned) [Compound 114]
Second: Cc1cn2nc(-c3cc(F)c4nc(C5CC6(CNC6)C5)cn4c3)cc(C)c2n1 [Compound 107]
The IC50 of the first is lower: < 100 nM for the first, 100 to 1000 nM for the second. The first is the more potent here.

First: Cc1cn2nc(-c3cc(C)c4nc(C5CCNCC5)cn4c3)cc(C)c2n1 [Compound 555, 2,8-dimethyl-6-(8-methyl-2-(piperidin-4-yl)imidazo[1,2-a]pyridin-6-yl)imidazo[1,2-b]pyridazine]
Second: Cc1cn2nc(-c3cc(F)c4nc(C5CCNC(C)(C)C5)cn4c3)cc(C)c2n1 (single isomer, unassigned) [Compound 235]
The IC50 of the first is higher: 100 to 1000 nM for the first, < 100 nM for the second. The second is the more potent here.

Cc1cn2nc(-c3cc(F)c4nc([C@H]5C[C@H](CN(C)C)C5)cn4c3)cc(C)c2n1 [Compound 181, 1-((1r,3r)-3-(6-(2,8-dimethylimidazo[1,2-b]pyridazin-6-yl)-8-fluoroimidazo[1,2-a]pyridin-2-yl)cyclobutyl)-N,N-dimethylmethanamine] and Cc1cn2nc(-c3cc(F)c4nc(C5CCNC(C)(C)C5)cn4c3)cc(C)c2n1 (single isomer, unassigned) [Compound 234] cannot be ordered by IC50: < 100 nM for the first, < 100 nM for the second.

Cc1cn2nc(-c3cc(F)c4nc(N5CCC(N(C)C)CC5)oc4c3)cc(C)c2n1 [Compound 475, 1-(6-(2,8-dimethylimidazo[1,2-b]pyridazin-6-yl)-4-fluorobenzo[d]oxazol-2-yl)-N,N-dimethylpiperidin-4-amine] and Cc1cn2nc(-c3cc(F)c4nc(N5CCC(N(C)C)CC5)oc4c3)cc(C(F)F)c2n1 [Compound 495, 1-(6-(8-(difluoromethyl)-2-methylimidazo[1,2-b]pyridazin-6-yl)-4-fluorobenzo[d]oxazol-2-yl)-N,N-dimethylpiperidin-4-amine] cannot be ordered by IC50: < 100 nM for the first, < 100 nM for the second.

Compared with Cc1cn2nc(-c3cc(F)c4nc([C@H]5C[C@]6(CCN(C)C6)C5)cn4c3)cc(C)c2n1 [Compound 203, 6-(8-fluoro-2-((2s,4s)-6-methyl-6-azaspiro[3.4]octan-2-yl)imidazo[1,2-a]pyridin-6-yl)-2,8-dimethylimidazo[1,2-b]pyridazine], CCN1CCC(c2cc(F)c3nc(-c4cc(C)c5nc(C)cn5n4)cn3c2)CC1 [Compound 132] is higher in IC50: < 100 nM for the first, 1000 to 9000 nM for the second. The first is the more potent here.

First: COc1cc(-c2cc(C(F)F)c3nc(C)cn3n2)cn2cc([C@H]3[C@@H]4CN(C)C[C@@H]43)nc12 [Compound 540, 8-(difluoromethyl)-6-[8-methoxy-2-[3-methyl-3-azabicyclo[3.1.0]hexan-6-yl]imidazo[1,2-a]pyridin-6-yl]-2-methyl-imidazo[1,2-b]pyridazine]
Second: Cc1cn2nc(-c3cc(F)c4nc(NC(=O)CC5CCCCN5C)nn4c3)cc(C)c2n1 (racemic) [Compound 328, N-(6-(2,8-dimethylimidazo[1,2-b]pyridazin-6-yl)-8-fluoro-[1,2,4]triazolo[1,5-a]pyridin-2-yl)-2-(1-methylpiperidin-2-yl)acetamide]
The IC50 of the first is lower: < 100 nM for the first, 100 to 1000 nM for the second. The first is the more potent here.

First: Fc1cccc2sc(-c3cc(F)c4nc(C5CCNCC5)cn4c3)cc12 [Compound 43, 8-fluoro-6-(4-fluorobenzo[b]thiophen-2-yl)-2-(piperidin-4-yl)imidazo[1,2-a]pyridine]
Second: Cc1nc2c(F)cc(-c3cc(F)c4nc(C5CCNCC5)cn4c3)cn2n1 [Compound 88, 8-fluoro-6-(8-fluoro-2-(piperidin-4-yl)imidazo[1,2-a]pyridin-6-yl)-2-methyl-[1,2,4]triazolo[1,5-a]pyridine]
The IC50 of the first is higher: 1000 to 9000 nM for the first, 100 to 1000 nM for the second.

First: Cc1cn2nc(-c3cc(F)c4nc(C5CCN(C6CCC6)CC5)nn4c3)cc(C)c2n1 [Compound 437, 2-(1-cyclobutylpiperidin-4-yl)-6-(2,8-dimethylimidazo[1,2-b]pyridazin-6-yl)-8-fluoro-[1,2,4]triazolo[1,5-a]pyridine]
Second: Cc1cn2nc(-c3cc(F)c4nc(C5CCNCC5)nn4c3)cc(C)c2n1 [Compound 150, 6-(2,8-dimethylimidazo[1,2-b]pyridazin-6-yl)-8-fluoro-2-(4-piperidyl)-[1,2,4]triazolo[1,5-a]pyridine]
The IC50 of the first is higher: 100 to 1000 nM for the first, < 100 nM for the second. The second is the more potent here.

Cc1cn2cc(-c3cc(F)c4nc(CC5CCNCC5)cn4c3)cc(F)c2n1 [Compound 236, 8,8′-difluoro-2-methyl-2′-(piperidin-4-ylmethyl)-6,6′-biimidazo[1,2-a]pyridine] and Cc1cc(-c2cc(F)c3nc(C4CCNCC4)cn3c2)cc2cn(C)nc12 [Compound 94, 5-(8-fluoro-2-(piperidin-4-yl)imidazo[1,2-a]pyridin-6-yl)-2,7-dimethyl-2H-indazole] fall in the same range of IC50: 100 to 1000 nM for the first, 100 to 1000 nM for the second.

Cc1cn2nc(-c3cc(F)c4nc(N5CCC6(CCN(C)CC6)C5)oc4c3)cc2c(C)n1 [Compound 499, 6-(4,6-dimethylpyrazolo[1,5-a]pyrazin-2-yl)-4-fluoro-2-(8-methyl-2,8-diazaspiro[4.5]decan-2-yl)benzo[d]oxazole] and Cn1nc2cc(-c3cc(F)c4nc(C5CCNCC5)cn4c3)cc(F)c2n1 [Compound 87, 4-fluoro-6-(8-fluoro-2-(piperidin-4-yl)imidazo[1,2-a]pyridin-6-yl)-2-methyl-2H-benzo[d][1,2,3]triazole] fall in the same range of IC50: 100 to 1000 nM for the first, 100 to 1000 nM for the second.
